Measurements as given in US20200222474A1, “COMPOSITIONS AND METHODS FOR INCREASING PHYTOCHEMICAL BIOAVAILABLITY AND BIOACTIVITY” (North Carolina State University, priority 2017, published 2020).

Tests used:
NCK2418 (ΔLBA0227) = assay: Phenotypic growth analysis of deletion mutant (PTS EIIC); format: cell-based, Lactobacillus acidophilus; details: compared with background Δupp strain
Method: (§1) Phenotypic growth assays were performed using 1% (v/v) overnight cultures of L. acidophilus strains (Table 2) and other Lactobacillus species (Table 3) grown on SDM supplemented with 1% (w/v) glucose to inoculate 200 μL of SDM supplemented with 1% (w/v) of the examined carbohydrate (0.5% in the case of esculin) in 96-well microplate wells (Corning Costar, Corning, N.Y., USA) in duplicate or triplicate wells, respectively. The microplates were sealed with clear adhesive film, incubated at 37° C. in a Fluostar Optima microplate reader (BMG Labtech, Cary, N.C., USA), and the cell optical density (OD600) was monitored for 30 hours.
Construction of gene deletion mutants. The L. acidophilus NCFM genes LBA0225 and LBA0726, both encoding P-Bgl of glycoside hydrolase family 1 (GH1) enzymes in addition to the LBA0227 and LBA0725 genes encoding an EIIC and an EIICBA components of two PTS systems, respectively, were deleted using the upp-based counterselectable gene replacement system. Briefly, in-frame deletions were constructed by amplifying 650-750 bp of the up- and downstream flanking regions of the deletion targets with two primer pairs (e.g., LBA0225A/LBA0225B and LBA0225C/LBA0225D; Table 4). The resulting purified products were joined by splicing using overlap extension PCR (SOE-PCR63) and amplified to establish the deletion alleles. The SOE-PCR products, that include flanking restriction enzyme sites, were cloned within the BamHI and SacI/EcoRI sites of the pTRK935 integration vector and transformed into E. coli EC101. The resulting recombinant plasmids (pTRK1113-6) were confirmed by DNA sequencing and electroporated into L. acidophilus NCK1910 (Table 2) that contains the pTRK669 helper plasmid, and the recovery of the single- and double-crossover recombinants was performed as previously described. Recombinants carrying the new gene deletion alleles were isolated by colony PCR using primer pairs denoted up/down (e.g., LBA0225up/LBA0225down), which anneal to the flanking regions of the amplicons. Sequence integrity and in-frame deletions were verified by DNA sequencing employing the aforementioned primer pairs and primer denoted mid (e.g., LBA0225mid). The mutations were in-frame deletions of 90-96% of the coding regions.
To establish the functional significance of these two loci, single deletions of each PTS EII and P-Bgl gene, and a double deletion of both P-Bgl genes were constructed using the upp-based counter-selectable gene replacement system (Table 2) and the growth phenotypes of the mutant strains were analyzed (FIG. 3). […]

L. acidophilus NCFM = assay: Growth of L. acidophilus NCFM on plant glycosides as single carbon source (OD600); format: cell-based, Lactobacillus acidophilus
Method: For initial growth and gene expression studies, L. acidophilus NCFM was propagated three times in semi-defined medium (SDM) supplemented with either 1% or 0,5% (w/v) of the plant glycoside or carbohydrate (Table 1). For the RNA-seq analysis, cells were harvested by centrifugation (3,220×10 min, 25° C.) in the mid-exponential phase (OD600=0.6-0.8) and stored at −80° C. for subsequent RNA isolation. For the mass spectrometry metabolite analyses, 200 μt samples were taken at 0, 3, 6, 9, 12, and 24 hours of growth; cells were removed by centrifugation; and supernatants were stored at −80° C. for further analysis.
as §1
The growth of L. acidophilus NCFM was evaluated on twelve chemically diverse, nutritionally relevant and/or therapeutically active PGs 1; Table 1). FIG. 1A provides the structures and common sources of plant glycoside substrates described herein. The compounds that support growth of Lactobacillus acidophilus are in green. RI: β-D-Glcp; R2: Gentiobioside (β-D-Glcp-(1,6)-D-Glcp); R3: Rutinoside (α-L-Rhaf-(1,6)-D-Glcp). The graph in FIG. 1B depicts plant glycoside utilization analyzed by mass spectrometry and the growth as the maximum OD600. Due to the low solubility of polydatin, OD600 cannot be used as a growth metric and utilization of this compound is confirmed by the production of lactate as well as a high utilization level based on the metabolite analysis.

[1] = test system: L. intestinalis Th4, ATCC 49335, DSM 6629; assay: Phenotypic growth assay (OD600); format: cell-based; details: SDM + 1% (w/v) carbohydrate (0.5% esculin), 37° C., 30 hours; corrected to medium without carbohydrate
Method: as §1

[2] = test system: L. jensenii ATCC 25258, 62G, DSM 20557; assay: Phenotypic growth assay (OD600); format: cell-based; details: SDM + 1% (w/v) carbohydrate (0.5% esculin), 37° C., 30 hours; corrected to medium without carbohydrate
Method: as §1

[3] = test system: L. amyloverus ATCC 33620, DSM 20531; assay: Phenotypic growth assay (OD600); format: cell-based; details: SDM + 1% (w/v) carbohydrate (0.5% esculin), 37° C., 30 hours; corrected to medium without carbohydrate
Method: as §1

L. animalis DSM 20602 = assay: Phenotypic growth assay (OD600); format: cell-based; details: SDM + 1% (w/v) carbohydrate (0.5% esculin), 37° C., 30 hours; corrected to medium without carbohydrate
Method: as §1

[4] = test system: L. crispatus ATCC 33820, DSM 20584; assay: Phenotypic growth assay (OD600); format: cell-based; details: SDM + 1% (w/v) carbohydrate (0.5% esculin), 37° C., 30 hours; corrected to medium without carbohydrate
Method: as §1

L. gasseri ATCC 33323 = assay: Phenotypic growth assay (OD600); format: cell-based; details: SDM + 1% (w/v) carbohydrate (0.5% esculin), 37° C., 30 hours; corrected to medium without carbohydrate
Method: as §1

[5] = test system: L. reuteri (ATCC 23272, DSM 20016); assay: Phenotypic growth assay (OD600); format: cell-based; details: SDM + 1% (w/v) carbohydrate (0.5% esculin), 37° C., 30 hours; corrected to medium without carbohydrate
Method: as §1

[6] = test system: L. rhanmosus GG (ATCC 53103); assay: Phenotypic growth assay (OD600); format: cell-based; details: SDM + 1% (w/v) carbohydrate (0.5% esculin), 37° C., 30 hours; corrected to medium without carbohydrate
Method: as §1

[7] = test system: L. plantarum sp. plantarum ATCC 14917, LA70; assay: Phenotypic growth assay (OD600); format: cell-based; details: SDM + 1% (w/v) carbohydrate (0.5% esculin), 37° C., 30 hours; corrected to medium without carbohydrate
Method: as §1

L. helveticus CNRZ32 = assay: Phenotypic growth assay (OD600); format: cell-based; details: SDM + 1% (w/v) carbohydrate (0.5% esculin), 37° C., 30 hours; corrected to medium without carbohydrate
Method: as §1

L. fermentum ATCC 14931 = assay: Phenotypic growth assay (OD600); format: cell-based; details: SDM + 1% (w/v) carbohydrate (0.5% esculin), 37° C., 30 hours; corrected to medium without carbohydrate
Method: as §1

L. johnsonii ATCC 33200 = assay: Phenotypic growth assay (OD600); format: cell-based; details: SDM + 1% (w/v) carbohydrate (0.5% esculin), 37° C., 30 hours; corrected to medium without carbohydrate
Method: as §1

L. acidophilus LA-1 = assay: Phenotypic growth assay (OD600); format: cell-based; details: SDM + 1% (w/v) carbohydrate (0.5% esculin), 37° C., 30 hours; corrected to medium without carbohydrate
Method: as §1

## N#C[C@H](O[C@@H]1O[C@H](CO[C@@H]2O[C@H](CO)[C@@H](O)[C@H](O)[C@H]2O)[C@@H](O)[C@H](O)[C@H]1O)c1ccccc1 [Amygdalin]
NCK2418 (ΔLBA0227)
  growth of the ΔLBA0227 mutant (inactive EIIC): abolished
L. acidophilus NCFM; SDM + 1% (w/v) carbohydrate (0.5% esculin), 37° C., 30 hours, corrected to medium without carbohydrate
  Growth (OD600 max class) of L. acidophilus NCFM: + (“+” signifies 0.3 > OD600 max > 0.1.)
L. acidophilus NCFM; growth concentration 1% (w/v), single carbon source, 200 μl cultures, 96 microtitre plates, corrected for medium without carbon source
  OD600 max: 0.3
[1]
  Growth (OD600 max class) of L. intestinalis Th4, ATCC 49335, DSM 6629: − (“−” signifies OD600 max < 0.1.)
[2]
  Growth (OD600 max class) of L. jensenii ATCC 25258, 62G, DSM 20557: + (“+” signifies 0.3 > OD600 max > 0.1.)
[3]
  Growth (OD600 max class) of L. amyloverus ATCC 33620, DSM 20531: − (“−” signifies OD600 max < 0.1.)
L. animalis DSM 20602
  Growth (OD600 max class) of L. animalis DSM 20602: − (“−” signifies OD600 max < 0.1.)
[4]
  Growth (OD600 max class) of L. crispatus ATCC 33820, DSM 20584: − (“−” signifies OD600 max < 0.1.)
L. gasseri ATCC 33323
  Growth (OD600 max class) of L. gasseri ATCC 33323: − (“−” signifies OD600 max < 0.1.)
[5]
  Growth (OD600 max class) of L. reuteri (ATCC 23272, DSM 20016): − (“−” signifies OD600 max < 0.1.)
[6]
  Growth (OD600 max class) of L. rhanmosus GG (ATCC 53103): +++ (“+++” signifies OD600 max > 0.6.)
[7]
  Growth (OD600 max class) of L. plantarum sp. plantarum ATCC 14917, LA70: +++ (“+++” signifies OD600 max > 0.6.)
L. helveticus CNRZ32
  Growth (OD600 max class) of L. helveticus CNRZ32: + (“+” signifies 0.3 > OD600 max > 0.1.)
L. fermentum ATCC 14931
  Growth (OD600 max class) of L. fermentum ATCC 14931: − (“−” signifies OD600 max < 0.1.)
L. johnsonii ATCC 33200
  Growth (OD600 max class) of L. johnsonii ATCC 33200: − (“−” signifies OD600 max < 0.1.)
L. acidophilus LA-1
  Growth (OD600 max class) of L. acidophilus LA-1: ++ (“++” signifies 0.6 > OD600 max > 0.3.)
